The results in this text go back to ChEMBL document CHEMBL3856279, “The discovery of new cytotoxic pyrazolopyridine derivatives” (Bioorg Med Chem Lett, 2016).

A short description of experiment [1]: Antiproliferative activity against human MIAPaCa2 cells after 48 hrs by MTS assay. The conditions noted are these: MIA PaCa-2, 48 h. Format: functional, cell-based.
A short description of experiment [2]: Antiproliferative activity against human SKOV3 cells after 48 hrs by MTS assay. Format: functional, cell-based. The conditions noted are these: SK-OV-3, 48 h. A general note: Tetrazolium dyes change colour on reduction, which living cells bring about.
Experiment [3] in a line: Antiproliferative activity against human WI38 cells after 48 hrs by MTS assay. Type of experiment: cell-based. The conditions noted are these: WI-38, 48 h.
Experiment [4] can be described thus: Antiproliferative activity against human DU145 cells after 48 hrs by MTS assay. The following applies: DU-145, 48 h. Type of experiment: functional, cell-based.
Experiment [5] in a line: Antiproliferative activity against human A2058 cells after 48 hrs by MTS assay. Type of experiment: functional, cell-based. The conditions noted are these: A2058, 48 h.
Experiment [6] is described as follows: Antiproliferative activity against human PC3 cells after 48 hrs by MTS assay. Type of experiment: functional, cell-based. The following applies: PC-3, 48 h.
The nature of experiment [7]: Cell cycle arrest in human PC3 cells assessed as accumulation at G0/G1 phase at antiproliferative IC50 after 48 hrs by propidium iodide staining based FACS analysis (reference value: 38.3 +/- 0.7%). Format: functional. The following applies: PC-3. (Flow cytometry measures light scatter and fluorescence of single cells or particles in a stream.)
Experiment [8] is described as follows: Cell cycle arrest in human PC3 cells assessed as accumulation at S phase at antiproliferative IC50 after 48 hrs by propidium iodide staining based FACS analysis (reference value: 37.7 +/- 2.2%). The following applies: PC-3. Format: functional.
Experiment [9] can be described thus: Cell cycle arrest in human PC3 cells assessed as accumulation at G2/M phase at antiproliferative IC50 after 48 hrs by propidium iodide staining based FACS analysis (reference value: 24 +/- 2.9%). Format: functional. The conditions noted are these: PC-3.
A short description of experiment [10]: Induction of apoptosis in human PC3 cells assessed as appearance of apoptotic nuclei at antiproliferative IC50 after 48 hrs by propidium iodide staining based FACS analysis (reference value: 0.7 +/- 0.1%). Type of experiment: functional, PC-3.

Turning to `Clc1cc2c(-c3ccccc3)n[nH]c2c(Nc2ccccc2)n1`, the half-inhibitory concentration (IC50) in [1] was determined as 4.3 µM; in experiment [2], 2.5 µM; in experiment [3] it was 23.4 µM.
The corresponding values for `CC(C)c1n[nH]c2c(Nc3ccccc3)nc(Cl)cc12` are 21.5 µM, greater than 50 µM and 38.7 µM.
The corresponding values for `c1ccc(Nc2nccc3cn[nH]c23)cc1` are greater than 50 µM, greater than 50 µM and greater than 50 µM.
The corresponding values for `CC(C)c1n[nH]c2c(Nc3ccccc3)nccc12` are 41.2 µM, 48.3 µM and greater than 50 µM.
Consider `COc1cc(Nc2nccc3c(C(C)C)n[nH]c23)cc(OC)c1OC`, for which the half-inhibitory concentration (IC50) was 10 µM in experiment [1], 22.9 µM in [2] and greater than 50 µM in experiment [3].
On to `COc1cc(Nc2nccc3c(-c4ccccc4)n[nH]c23)cc(OC)c1OC`, for which the half-inhibitory concentration (IC50) turned out to be 3.8 µM in experiment [1]; 0.73 µM in experiment [2]; 14.9 µM in experiment [3]; 0.92 µM in [4]; 0.89 µM in experiment [5]; 0.38 µM in [6]. The Activity in experiment [7] turned out to be 80.8%; in experiment [8], 0%; in experiment [9], 19.2%; in experiment [10], 25.8%.
Turning to `COc1cc(Nc2nccc3cn[nH]c23)cc(OC)c1OC`, the half-maximal inhibitory concentration (IC50) in experiment [1], in experiment [2] and in [3] was greater than 50 µM in each case.
Consider `COc1cc(Nc2nc(Cl)cc3c(-c4ccccc4)n[nH]c23)cc(OC)c1OC`, for which the 50% inhibitory concentration (IC50) in [1] worked out at 6.7 µM; in experiment [2] it was 5.9 µM; in experiment [3] it was 21.9 µM; in experiment [6], 15 µM. The Activity in experiment [7] worked out at 46.2%; in [8] it was 30.3%; in [9], 23.5%; in experiment [10] it was 0.9%.
For the molecule `COc1cc(Nc2nc(Cl)cc3cn[nH]c23)cc(OC)c1OC`, the half-inhibitory concentration (IC50) in experiment [1] is 16.2 µM; in experiment [2] it was 13.1 µM; in experiment [3], greater than 50 µM.
Turning to `Clc1cc2cn[nH]c2c(Nc2ccccc2)n1`, the IC50 in [1] was 36.2 µM; in [2], 34.2 µM; in [3], greater than 50 µM.
Regarding `c1ccc(Nc2nccc3c(-c4ccccc4)n[nH]c23)cc1`, the results for the IC50 in experiment [1], in [2] and in experiment [3] were 9 µM, 22.1 µM and 24.7 µM, respectively.
On to `COc1cc(Nc2nc(Cl)cc3c(C(C)C)n[nH]c23)cc(OC)c1OC`, for which the half-inhibitory concentration (IC50) came to 6.1 µM in [1], 5.6 µM in experiment [2] and 43.8 µM in experiment [3].

The term IC50 denotes the point on the concentration scale where inhibition reaches its midpoint. The low end stands for greater potency in that assay, the high end for weaker potency in that assay.
